From BindingDB's records for doi:10.1021/jm00023a011 (Agricultural University of Athens, 1995)

Assays:
[1] = molecular target: T1, Phospholipase A1 member A (Rattus norvegicus, UniProt P97535); assay: IC50 was measured as concentration causing 50% inhibition of lysosomal phospholipase A1 activity.
T1 sequence (P97535 whole entry): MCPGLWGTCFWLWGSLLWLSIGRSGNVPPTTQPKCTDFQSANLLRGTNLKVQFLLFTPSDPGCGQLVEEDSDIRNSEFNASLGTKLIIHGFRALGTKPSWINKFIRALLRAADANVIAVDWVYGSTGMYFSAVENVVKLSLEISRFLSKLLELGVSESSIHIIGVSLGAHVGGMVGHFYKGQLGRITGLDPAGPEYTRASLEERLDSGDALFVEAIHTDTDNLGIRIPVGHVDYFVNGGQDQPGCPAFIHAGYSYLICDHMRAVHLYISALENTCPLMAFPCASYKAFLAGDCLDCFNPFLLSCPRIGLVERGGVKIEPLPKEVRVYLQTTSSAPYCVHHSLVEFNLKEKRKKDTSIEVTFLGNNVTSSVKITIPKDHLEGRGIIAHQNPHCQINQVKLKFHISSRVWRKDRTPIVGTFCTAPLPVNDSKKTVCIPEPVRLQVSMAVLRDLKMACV

[2] = molecular target: T1, Phospholipase A1 member A; assay: IC50 was measured as concentration causing 50% inhibition of lysosomal phospholipase A1 activity

CCNC1CC(N)C(OC2OC(CNC(=O)C(C)N)=CCC2N)C(O)C1OC1OCC(C)(O)C(NC)C1O (centres undefined)
IC50 [1]: 91.4 µM

CCNC1CC(N)C(OC2OC(CNC(=O)C(N)CC(=O)O)=CCC2N)C(O)C1OC1OCC(C)(O)C(NC)C1O (centres undefined)
IC50 [2]: 132 µM

CC(N)C(=O)NCC1OC(OC2C(N)CC(N)C(OC3OC(CO)C(O)C(N)C3O)C2O)C(O)C(O)C1O (centres undefined)
IC50 [1]: 75.5 µM

CCN[C@@H]1C[C@H](N)[C@@H](O[C@H]2OC(CNC(=O)[C@H](C)NC(=O)[C@H](C)N)=CC[C@H]2N)[C@@H](O)[C@H]1O[C@H]1OC[C@](C)(O)[C@H](NC)[C@@H]1O
IC50 [2]: 101 µM

C[C@H](N)C(=O)N[C@@H](C)C(=O)NC[C@H]1O[C@H](O[C@H]2[C@@H](O)[C@@H](O[C@H]3O[C@@H](CO)[C@@H](O)[C@H](N)[C@@H]3O)[C@H](N)C[C@@H]2N)[C@H](O)[C@H](O)[C@@H]1O
IC50 [2]: 49.4 µM

CCNC1CC(N)C(OC2OC(CNC(=O)CN)=CCC2N)C(O)C1OC1OCC(C)(O)C(NC)C1O (centres undefined)
IC50 [2]: 118 µM

NC[C@H]1O[C@H](O[C@H]2[C@H](O)[C@@H](O[C@H]3O[C@H](CO)[C@@H](O)[C@H](N)[C@H]3O)[C@H](N)C[C@@H]2N)[C@H](O)[C@@H](O)[C@@H]1O [CHEBI:17630]
IC50 [1]: 80.4 µM

CN[C@@H]1[C@@H](O)[C@@H](O[C@@H]2[C@@H](O)[C@H](O[C@H]3O[C@H]([C@@H](C)NC)CC[C@H]3N)[C@@H](N)C[C@H]2N)OC[C@]1(C)O [GENTAMICIN]
IC50 [1]: 94.2 µM

CCN[C@@H]1C[C@H](N)[C@@H](O[C@H]2OC(CN)=CC[C@H]2N)[C@H](O)[C@H]1O[C@H]1OC[C@](C)(O)[C@H](NC)[C@H]1O [Netilmicin]
IC50 [1]: 115 µM
